From patent publication US9554979B2, “Hair care compositions and methods of use” (The Procter & Gamble Company, priority 2011, dated 2017)
Where two headings read alike, the source gives them in different places.

Tests used:
[1] = Qualitative experimental solubility scoring of apigenin in 32 solvents; assay type: physicochemical; set-up: key: 1 = Completely Dissolved; 2 = Very Swollen; 3 = Swollen; 4 = Slightly Swollen; 5 = Hardly Swollen; 6 = Not touched; — = Assignment Unclear
Description: (§1) HSPs and the solubility sphere for apigenin are optimized using the fitting method in the software HSPIP version 3.1.06 from Charles M. Hansen Consulting, Hørsholm, Denmark, hansen-solubility.com. Qualitative experimental solubilities for apigenin in 32 diverse potential solvents are determined using the scoring system at the bottom of Table 1. In the fitting function within HSPiP, solvents with scores of 1 and those with scores of 2-5 are categorized as “good” and “bad” solvents, respectively. […] Because the radius can be unbounded, fits with radii larger than 95% of the radius distribution are removed from these 50 trials (≦8.5 MPa^0.5). • 2. Determine the ranges for δD, δP, δH for the remaining fits. • 3. Locate the fit closest to this point using the Ra equation above. • 4. Chose the values for δD, δP, δH from Step 2 for the HSP's and the value of Ra from Step 3 for the radius.

[2] = Hansen Solubility Parameter fitting for apigenin (HSPiP); conditions: fitted in HSPiP v. 3.1.06 from solubility scores in 32 solvents
Description: as §1
Using this protocol, apigenin HSP values and solvent radius are determined to be δD=18.7, δP=13.5, δH=13.9 and Ra=6.8 (all in MPa^0.5). This sphere defines the initial region encompassing solvents into which apigenin will be soluble. (Note HSPiP v. 3.1.06 is used herein to determine all HSPs by 1) lookup if available within the program's internal database; 2) estimation if not in the database using the Y-MB method; or 3) via the procedure described above (apigenin only).)

[3] = Apigenin premixtures with various solubilizing agents, solubility; assay type: physicochemical; conditions: organic solvent or mixture, thermodynamic from solid
Description: According to another embodiment of the invention, a process for preparing a hair care composition includes mixing apigenin and a solubilizing agent at a temperature sufficient to allow dissolution of the apigenin in the solubilizing agent to form a premixture; combining the premixture with an aqueous carrier to form the hair care composition; and optionally, adjusting the pH of the hair care composition with acid to within a range from about 3 to about 10. The premixture is prepared by combining apigenin and one or more solubilizing agents. Solubilization energy (e.g., stiffing, sonication, milling, heat, etc.) may be applied to accelerate the dissolution process. For example, a premixture of apigenin in triethanolamine may be prepared by combining apigenin and triethanolamine in a single vessel and heating the mixture to 70° C. while stirring until a clear solution results. According to one aspect of the exemplary method of making the premixture, the combined apigenin and triethanolamine are mixed at 50-100 rpm using a IKA RET CV-S1 mixer. According to another aspect, the combination is mixed at 300-500 rpm using a IKA Eurostar PWR CV-S1 mixer.

[4] = Experimentally observed apigenin solubility in solubilizing agents and solvents; assay type: physicochemical
From the text: Non-limiting examples of solubilizing agents, which have suitable Hansen Solubility Parameters and may be used to solubilize apigenin include triethanolamine (CAS No. 102-71-6); diethanolamine (CAS No. 203-868-0); ethanolamine (CAS No. 141-43-5); N-methylformamide (CAS No. 123-39-7); 2-dimethylaminoethanol (CAS No. 203-542-8); 2-dimethylamino-2-propanol (108-16-7); ethylenediamine (CAS No. 107-15-3); 2-amino-2-methyl-1-propanol (CAS No. 124-68-5); laurocapram (CAS No. 59227-89-3); and dimethyl capramide (Spectrasolv, CAS No. 14433-76-2). Non-limiting examples of solvents, which have suitable Hansen Solubility Parameters and may be used in combination with one or more solubilizing agents include dipropyleneglycol (CAS No. 110-98-5); propylene glycol (Hydrolite™ 5, CAS No. […]); butylene glycol (CAS No. 107-88-0); 1,4-butanediol (CAS No. 110-63-4); 3-allyloxy-1,2-propanediol (CAS No. 123-34-2); dipropylene glycol n-butyl ether (CAS No. 29911-28-2); 1,2-hexanediol (CAS No. 6920-22-5); dimethyl isosorbide (Arlasolve™ CAS No. 5306-85-4); ethanol (CAS No. 64-17-5); 1,3-butanediol (CAS No. 107-88-0); 1,3-propanediol (CAS No. 504-63-2); 2,2′-thiodiethanol (CAS No. 111-48-8); and 1,6-hexanediol (CAS No. 629-11-8). Table 2 provides a summary of various solubilizing agents and solvents and their respective HSP values, along with experimentally observed apigenin solubility.

[5] = in water and nearly all solvents suitable for pharmaceutical, cosmetic, and food additive formulations (practically insoluble); cited from earlier work

O=c1cc(-c2ccc(O)cc2)oc2cc(O)cc(O)c12 [apigenin, 5,7-dihydroxy-2-(4-hydroxyphenyl)-4H-1-benzopyran-4-one]
Solubility Score ([1]; in 1,4-Dioxane): 5 | Solubility Score ([1]; in 1-Butanol): 4 | Solubility Score ([1]; in 2-Phenoxy Ethanol): 4 | Solubility Score ([1]; in 2-Propanol): 4 | Solubility Score ([1]; in Acetone): 5 | Solubility Score ([1]; in Acetonitrile): 5 | Solubility Score ([1]; in Carbon Tetrachloride): 6 | Solubility Score ([1]; in Chloroform): 5 | Solubility Score ([1]; in Cyclohexane): 6 | Solubility Score ([1]; in Cyclohexanol): 4 | Solubility Score ([1]; in Cyclohexanone): 4 | Solubility Score ([1]; in Diacetone Alcohol): 4 | Solubility Score ([1]; in Dichloromethane): 5 | Solubility Score ([1]; in Dimethyl Formamide (DMF)): 1 | Solubility Score ([1]; in Dimethyl Sulfoxide (DMSO)): 1 | Solubility Score ([1]; in Ethyl Acetate): 5 | Solubility Score ([1]; in Hexane): 6 | Solubility Score ([1]; in Methanol): 4 | Solubility Score ([1]; in Methyl Ethyl Ketone (MEK)): 5 | Solubility Score ([1]; in Methyl Isobutyl Ketone (MIBK)): 5 | Solubility Score ([1]; in N-Methyl-2-Pyrrolidone (NMP)): 1 | Solubility Score ([1]; in N-methylformamide): 1 | Solubility Score ([1]; in Propylene Carbonate): 5 | Solubility Score ([1]; in Propylene Glycol Monomethyl Ether): 2 | Solubility Score ([1]; in Propylene Glycol Monomethyl Ether Acetate): 5 | Solubility Score ([1]; in Tetrahydrofuran (THF)): 4 | Solubility Score ([1]; in Toluene): 6 | Solubility Score ([1]; in gamma-Butyrolactone (GBL)): 4 | Solubility Score ([1]; in n-Butyl Acetate): 5 | Solubility Score ([1]; in n-Butyl Acrylate): 5 | Solubility Score ([1]; in p-Xylene): 6 | HSP δD (dispersion-force component) [2]: 18.7 MPa^0.5 | HSP δH (hydrogen-bonding component) [2]: 13.9 MPa^0.5 | HSP δP (polar component) [2]: 13.5 MPa^0.5 | solvent radius Ra [2]: 6.8 MPa^0.5 | solubility ([3]; 1-Dimethylamino-2-propanol solution, in 1-Dimethylamino-2-propanol solution, room temp, 300 rpm): 20.2 mg/mL | solubility ([3]; 1-dimethylamino-2-propanol, in 1-Dimethylamino-2-propanol solution, room temp, 1500 sm): 20 mg/mL | solubility ([3]; 1-dimethylamino-2-propanol/TEA, in 1-Dimethylamino-2-propanol/TEA, room temp, 300-810 rpm): 17.3 mg/mL | solubility ([3]; 1-dimethylamino-2-propanol/ethanolamine, in 1-Dimethylamino-2-propanol/Ethanolamine, room temp, 300 rpm): 16.6 mg/mL | solubility ([3]; 1-dimethylamino-2-propanol/ethanolamine/TEA, in 1-Dimethylamino-2-propanol/Ethanolamine/TEA, room temp, 300-500 rpm): 16.5 mg/mL | solubility ([3]; 1-dimethylamino-2-propanol/ethylenediamine, in 1-Dimethylamino-2-propanol/Ethylenediamine, room temp, 400-600 rpm): 20.1 mg/mL | solubility ([3]; 1-methylimidazole, 82 °C, in 1-Methylimidazole, 100 rpm): 20.4 mg/mL | solubility ([3]; 2-amino-2-methyl-1-propanol, 71 °C, in 2-amino-2-methyl-1-propanol, 400 rpm): 20 mg/mL | solubility ([3]; 2-amino-2-methyl-1-propanol, 71 °C, in 2-amino-2-methyl-1-propanol, 450 rpm): 14.8 mg/mL | solubility ([3]; 2-dimethylaminoethanol, 29 °C, in 2-Dimethylaminoethanol, 300 rpm): 19.9 mg/mL | solubility ([3]; 2-dimethylaminoethanol, in 2-Dimethylaminoethanol, room temp, 300 rpm): 20.2 mg/mL | solubility ([3]; Dimethyl capramide, in Dimethyl capramide, Room temp, 400 rpm): 16 mg/mL | solubility ([3]; N-methylformamide, 101 °C, in N-Methylformamide, 400 rpm): 13.7 mg/mL | solubility ([3]; TEA (triethanolamine), 169 °C, in TEA, 450 rpm (synthetic apigenin)): 14.7 mg/mL | solubility ([3]; TEA (triethanolamine), in TEA, room temp, 450-590 rpm): 20 mg/mL | solubility ([3]; TEA/1-Dimethylamino-2-propanol, in TEA/1-Dimethylamino-2-propanol, room temp, 350-450 rpm): 17 mg/mL | solubility ([3]; TEA/1-Dimethylamino-2-propanol/Ethylenediamine, in TEA/1-Dimethylamino-2-propanol/Ethylenediamine, room temp, 330-600 rpm): 20.6 mg/mL | solubility ([3]; TEA/2-Dimethylaminoethanol/1-Dimethylamino-2-propanol, in TEA/2-Dimethylaminoethanol/1-Dimethylamino-2-propanol, room temp, 330-400, 1500 sm): 15 mg/mL | solubility ([3]; TEA/2-Dimethylaminoethanol/1-Dimethylamino-2-propanol, in TEA/2-Dimethylaminoethanol/1-Dimethylamino-2-propanol, room temp, 1500 sm): 15 mg/mL | solubility ([3]; Triethylene glycol, 156 °C, in Triethylene glycol, 300 rpm): 6.11 mg/mL | solubility ([3]; diethanolamine, 128 °C, in Diethanolamine, 550 rpm): 20.2 mg/mL | solubility ([3]; ethanolamine, 29 °C, in Ethanolamine, 350-500 rpm): 20.1 mg/mL | solubility ([3]; ethanolamine, 76 °C, in Ethanolamine, 300 rpm): 20.3 mg/mL | solubility ([3]; ethanolamine, 76 °C, in Ethanolamine, 400 rpm (synthetic apigenin)): 20.2 mg/mL | solubility ([3]; ethanolamine, in Ethanolamine, room temp, 350-740 rpm): 20.2 mg/mL | solubility ([3]; ethanolamine/TEA, 29 °C, in Ethanolamine/TEA, 300-600 rpm): 18 mg/mL | solubility ([3]; ethanolamine/TEA, in Ethanolamine/TEA, room temp, 350-500 rpm): 16 mg/mL | solubility ([3]; ethylenediamine, 28 °C, in Ethylenediamine, 320 rpm): 20 mg/mL | solubility ([3]; ethylenediamine, in Ethylenediamine, room temp, 320 rpm): 20.2 mg/mL | solubility ([3]; laurocapram, 98%, 140 °C, in Laurocapram, 500-600 rpm): 14 mg/mL | solubility ([3]; laurocapram, 98%, in Laurocapram, room temp, 500-600 rpm): 13.9 mg/mL | solubility ([3]; pyridine, in Pyridine, room temp, 300 rpm): 15.8 mg/mL | Experimental solubility ([4]; in 1,2-hexanediol at 90 C.): 0.4% at 90 C. | Experimental solubility ([4]; in 1,3-butanediol at 98 C.): 1.52% at 98 C. | Experimental solubility ([4]; in 1,3-propanediol at 100 C.): 0.73% at 100 C. | Experimental solubility ([4]; in 1,4-butanediol at 110 C.): 1.0% at 110 C. | Experimental solubility ([4]; in 1,6-Hexanediol at 137 C.): 4.12% at 137 C. | Experimental solubility ([4]; in 2,2′-thiodiethanol at 103 C.): 0.47% at 103 C. | Experimental solubility ([4]; in 2-amino-2-methyl-1-propanol at 71 C.): 20.03% at 71 C. | Experimental solubility ([4]; in 2-dimethylamino-2-propanol (CAS 108-16-7) at 21 C.): 20.18% at 21 C. | Experimental solubility ([4]; in 2-dimethylaminoethanol at 29 C.): 19.95% at 29 C. | Experimental solubility ([4]; in 3-allyloxy-1,2-propanediol at 120 C.): 1.0% at 120 C. | Experimental solubility ([4]; in Dimethyl capramide at RT): 16.0% at RT | Experimental solubility ([4]; in Ethanol at 21 C. and 50 C.): 0.32% at 21 C. and 50 C. | Experimental solubility ([4]; in Laurocapram at 21 C.): 13.0% at 21 C. | Experimental solubility ([4]; in N-methylformamide): Ppt upon cooling | Experimental solubility ([4]; in butylene glycol at 98 C.): 1.52% at 98 C. | Experimental solubility ([4]; in diethanolamine at 128 C.): 20.25% at 128 C. | Experimental solubility ([4]; in dimethyl isosorbide at 100 C.): 1.54% at 100 C. | Experimental solubility ([4]; in dipropylene glycol n-butyl ether at 90 C.): 0.6% at 90 C. | Experimental solubility ([4]; in dipropyleneglycol at 115 C.): 2.19% at 115 C. | Experimental solubility ([4]; in ethanolamine at 76 C.): 20.31% at 76 C. | Experimental solubility ([4]; in ethylenediamine at 28 C.): 20.03% at 28 C. | Experimental solubility ([4]; in propylene glycol (CAS 5343-92-0) at 100 C.): 0.62% at 100 C. | Experimental solubility ([4]; in triethanolamine at 165 C.): 12.7% at 165 C. | solubility [5]: less than 1 mg/ml
